In patent US20220315554A1, “COMPOUNDS COMPRISING A […] LIGAND AND USE THEREOF” (priority 2019, published 2022):

Legend:
Assay in all cases: biochemical
[1] = molecular target: T1, proteases (Homo sapiens, UniProt P42574); settings: Caspase-3; reference at 100 nM
T1 construct: BPS Biosciences (contract assay)

[2] = molecular target: T2, proteases (Homo sapiens, UniProt P55210); settings: Caspase-7; reference at 1 μM
T2 construct: BPS Biosciences (contract assay)

[3] = molecular target: T3, proteases (Homo sapiens, UniProt O60911); settings: Cathepsin V; reference at 100 nM
T3 construct: BPS Biosciences (contract assay)

[4] = molecular target: proteases (Homo sapiens, UniProt P07858); settings: Cathepsin B; reference at 100 nM
[5] = molecular target: T4, proteases (Homo sapiens, UniProt P25774); settings: Cathepsin S; reference at 100 nM
T4 construct: BPS Biosciences (contract assay)

[6] = molecular target: T5, proteases (Homo sapiens, UniProt P07711); settings: Cathepsin L; reference at 1 μM
T5 construct: BPS Biosciences (contract assay)

[7] = molecular target: T6, proteases (Homo sapiens, UniProt Q14790); settings: Caspase-8; reference at 100 nM
T6 construct: BPS Biosciences (contract assay)

[8] = molecular target: T7, proteases (Homo sapiens, UniProt P55212); settings: Caspase-6; reference at 1 μM
T7 construct: BPS Biosciences (contract assay)

[9] = molecular target: T8, proteases (Homo sapiens, UniProt O75604); settings: Ubiquitin carboxy-terminal hydrolase 2; reference at 1 μM
T8 construct: BPS Biosciences (contract assay)

[10] = molecular target: T9, proteases (Homo sapiens, UniProt P40818); settings: Ubiquitin carboxy-terminal hydrolase 8; reference at 1 μM
T9 construct: BPS Biosciences (contract assay)

[11] = molecular target: T10, proteases (Homo sapiens, UniProt P09936); settings: Ubiquitin carboxy-terminal hydrolase L1; reference at 100 nM
T10 construct: BPS Biosciences (contract assay)

[12] = molecular target: T11, proteases (Homo sapiens, UniProt P54252); settings: Ataxin3; reference at 10 μM
T11 construct: BPS Biosciences (contract assay)

[13] = molecular target: T12, proteases (Homo sapiens, UniProt P15374); settings: Ubiquitin carboxy-terminal hydrolase L3; reference at 10 nM
T12 construct: BPS Biosciences (contract assay)

[14] = molecular target: T13, proteases (Homo sapiens, UniProt Q93009); settings: Ubiquitin carboxy-terminal hydrolase 7; reference at 1 μM
T13 construct: BPS Biosciences (contract assay)

[15] = molecular target: T14, proteases (Homo sapiens, UniProt Q8N6M0); settings: Deubiquitinase OTUD6B; reference at 1 μM
T14 construct: BPS Biosciences (contract assay)

[16] = molecular target: T15, proteases (Homo sapiens, UniProt P54578); settings: Ubiquitin carboxy-terminal hydrolase 14; reference at 100 nM
T15 construct: BPS Biosciences (contract assay)

[17] = molecular target: T16, proteases (Homo sapiens, UniProt Q14694); settings: Ubiquitin carboxy-terminal hydrolase 10; reference at 1 μM
T16 construct: BPS Biosciences (contract assay)

[18] = molecular target: T17, proteases (Homo sapiens, UniProt P45974); settings: Ubiquitin carboxy-terminal hydrolase 5; reference at 1 μM
T17 construct: BPS Biosciences (contract assay)

[19] = molecular target: T18, proteases (Homo sapiens, UniProt Q12884); settings: FAP; reference at 100 nM
T18 construct: BPS Biosciences (contract assay)

[20] = molecular target: T19, proteases (Homo sapiens, UniProt Q9UBX1); settings: Cathepsin F; reference at 1 μM
T19 construct: BPS Biosciences (contract assay)

[21] = molecular target: proteases (Homo sapiens, UniProt Q9UHL4); settings: DPP7; reference at 200 μM
[22] = molecular target: T20, proteases (Homo sapiens, UniProt Q6V1X1); settings: DPP8; reference at 200 μM
T20 construct: BPS Biosciences (contract assay)

T13 sequence (Q93009 whole entry): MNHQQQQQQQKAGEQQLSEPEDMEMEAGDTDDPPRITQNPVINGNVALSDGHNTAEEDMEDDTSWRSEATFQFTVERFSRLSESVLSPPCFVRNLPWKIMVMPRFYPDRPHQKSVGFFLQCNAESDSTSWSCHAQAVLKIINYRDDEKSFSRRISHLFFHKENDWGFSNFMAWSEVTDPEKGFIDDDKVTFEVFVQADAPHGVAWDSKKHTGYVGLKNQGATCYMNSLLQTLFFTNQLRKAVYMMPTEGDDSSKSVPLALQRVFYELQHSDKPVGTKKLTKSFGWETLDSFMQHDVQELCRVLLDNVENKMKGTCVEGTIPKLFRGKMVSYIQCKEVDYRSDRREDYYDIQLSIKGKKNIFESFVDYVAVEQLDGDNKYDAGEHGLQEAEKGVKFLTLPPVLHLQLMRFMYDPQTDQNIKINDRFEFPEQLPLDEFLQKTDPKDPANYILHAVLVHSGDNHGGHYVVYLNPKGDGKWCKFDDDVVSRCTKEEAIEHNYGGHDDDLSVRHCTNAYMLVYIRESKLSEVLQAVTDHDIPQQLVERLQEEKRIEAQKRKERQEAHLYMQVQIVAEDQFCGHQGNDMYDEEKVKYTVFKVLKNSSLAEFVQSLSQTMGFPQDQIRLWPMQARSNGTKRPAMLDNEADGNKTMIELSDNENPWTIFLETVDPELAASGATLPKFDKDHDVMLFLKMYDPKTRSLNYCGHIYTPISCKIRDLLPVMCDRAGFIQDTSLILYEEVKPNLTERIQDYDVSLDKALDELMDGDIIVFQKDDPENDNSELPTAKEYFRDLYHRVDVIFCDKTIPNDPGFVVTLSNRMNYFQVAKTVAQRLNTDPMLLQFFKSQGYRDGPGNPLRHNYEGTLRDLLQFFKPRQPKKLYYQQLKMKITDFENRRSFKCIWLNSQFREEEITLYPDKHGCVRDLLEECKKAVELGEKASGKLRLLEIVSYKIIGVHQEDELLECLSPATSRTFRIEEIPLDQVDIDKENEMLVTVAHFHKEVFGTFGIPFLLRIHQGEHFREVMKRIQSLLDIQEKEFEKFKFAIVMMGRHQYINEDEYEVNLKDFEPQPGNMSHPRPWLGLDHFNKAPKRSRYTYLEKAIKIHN
T14 sequence (Q8N6M0 whole entry): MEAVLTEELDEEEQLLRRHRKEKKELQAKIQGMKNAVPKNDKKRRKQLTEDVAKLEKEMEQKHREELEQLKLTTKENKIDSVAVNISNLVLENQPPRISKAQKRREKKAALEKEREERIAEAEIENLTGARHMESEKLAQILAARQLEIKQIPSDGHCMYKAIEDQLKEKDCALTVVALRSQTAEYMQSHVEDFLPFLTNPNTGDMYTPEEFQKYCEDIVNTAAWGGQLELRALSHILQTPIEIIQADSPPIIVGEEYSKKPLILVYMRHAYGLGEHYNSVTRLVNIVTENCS
T10 sequence (P09936 whole entry): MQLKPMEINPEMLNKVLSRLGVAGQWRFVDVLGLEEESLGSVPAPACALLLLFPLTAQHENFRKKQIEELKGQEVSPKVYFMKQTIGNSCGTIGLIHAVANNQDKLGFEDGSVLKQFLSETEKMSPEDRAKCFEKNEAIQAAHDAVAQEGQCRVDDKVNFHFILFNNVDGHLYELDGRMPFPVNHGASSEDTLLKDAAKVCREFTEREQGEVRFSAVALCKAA
T5 sequence (P07711 114-333): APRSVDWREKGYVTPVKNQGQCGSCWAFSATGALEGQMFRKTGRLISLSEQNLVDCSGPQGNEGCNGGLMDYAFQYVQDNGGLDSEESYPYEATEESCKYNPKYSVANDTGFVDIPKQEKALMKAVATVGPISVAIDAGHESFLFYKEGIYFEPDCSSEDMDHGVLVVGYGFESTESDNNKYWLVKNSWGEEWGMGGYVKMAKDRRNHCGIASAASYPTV
T1 sequence (P42574 29-277): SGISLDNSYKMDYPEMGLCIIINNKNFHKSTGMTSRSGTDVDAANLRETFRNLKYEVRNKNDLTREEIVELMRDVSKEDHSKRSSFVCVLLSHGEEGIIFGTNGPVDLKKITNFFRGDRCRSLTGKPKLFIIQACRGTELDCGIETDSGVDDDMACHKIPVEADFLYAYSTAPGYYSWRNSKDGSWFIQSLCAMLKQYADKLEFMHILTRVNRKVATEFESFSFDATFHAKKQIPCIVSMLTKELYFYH
T18 sequence (Q12884 whole entry): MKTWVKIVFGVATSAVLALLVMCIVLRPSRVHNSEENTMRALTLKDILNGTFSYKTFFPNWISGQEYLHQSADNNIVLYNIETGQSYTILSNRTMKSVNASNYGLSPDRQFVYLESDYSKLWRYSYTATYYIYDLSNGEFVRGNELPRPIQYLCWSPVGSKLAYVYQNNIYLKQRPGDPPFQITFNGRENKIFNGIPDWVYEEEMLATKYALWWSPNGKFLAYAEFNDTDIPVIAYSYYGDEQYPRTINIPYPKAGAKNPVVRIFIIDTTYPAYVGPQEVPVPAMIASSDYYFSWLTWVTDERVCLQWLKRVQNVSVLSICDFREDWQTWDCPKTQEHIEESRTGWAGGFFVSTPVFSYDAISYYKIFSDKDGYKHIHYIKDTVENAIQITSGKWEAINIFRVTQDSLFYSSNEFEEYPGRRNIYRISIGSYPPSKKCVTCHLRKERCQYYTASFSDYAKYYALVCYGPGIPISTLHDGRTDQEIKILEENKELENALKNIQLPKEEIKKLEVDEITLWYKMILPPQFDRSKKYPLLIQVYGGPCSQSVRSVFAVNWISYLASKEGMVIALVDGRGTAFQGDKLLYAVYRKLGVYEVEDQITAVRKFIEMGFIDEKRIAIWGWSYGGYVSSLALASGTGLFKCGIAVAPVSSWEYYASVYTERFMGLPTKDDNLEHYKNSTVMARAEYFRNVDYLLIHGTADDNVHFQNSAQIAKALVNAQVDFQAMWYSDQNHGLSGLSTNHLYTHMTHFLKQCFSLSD
T4 sequence (P25774 115-331): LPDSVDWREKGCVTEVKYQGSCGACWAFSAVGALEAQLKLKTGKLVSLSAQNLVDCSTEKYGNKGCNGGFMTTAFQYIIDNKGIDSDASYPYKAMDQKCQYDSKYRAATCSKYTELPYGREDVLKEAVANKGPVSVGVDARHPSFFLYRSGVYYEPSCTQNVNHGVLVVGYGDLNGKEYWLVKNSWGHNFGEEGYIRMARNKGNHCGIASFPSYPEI
T12 sequence (P15374 whole entry): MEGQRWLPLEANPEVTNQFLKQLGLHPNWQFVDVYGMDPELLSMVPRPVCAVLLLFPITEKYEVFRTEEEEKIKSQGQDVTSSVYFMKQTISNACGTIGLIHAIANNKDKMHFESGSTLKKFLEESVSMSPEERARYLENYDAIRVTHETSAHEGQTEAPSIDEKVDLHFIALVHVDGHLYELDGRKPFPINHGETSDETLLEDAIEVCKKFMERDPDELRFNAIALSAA
T9 sequence (P40818 whole entry): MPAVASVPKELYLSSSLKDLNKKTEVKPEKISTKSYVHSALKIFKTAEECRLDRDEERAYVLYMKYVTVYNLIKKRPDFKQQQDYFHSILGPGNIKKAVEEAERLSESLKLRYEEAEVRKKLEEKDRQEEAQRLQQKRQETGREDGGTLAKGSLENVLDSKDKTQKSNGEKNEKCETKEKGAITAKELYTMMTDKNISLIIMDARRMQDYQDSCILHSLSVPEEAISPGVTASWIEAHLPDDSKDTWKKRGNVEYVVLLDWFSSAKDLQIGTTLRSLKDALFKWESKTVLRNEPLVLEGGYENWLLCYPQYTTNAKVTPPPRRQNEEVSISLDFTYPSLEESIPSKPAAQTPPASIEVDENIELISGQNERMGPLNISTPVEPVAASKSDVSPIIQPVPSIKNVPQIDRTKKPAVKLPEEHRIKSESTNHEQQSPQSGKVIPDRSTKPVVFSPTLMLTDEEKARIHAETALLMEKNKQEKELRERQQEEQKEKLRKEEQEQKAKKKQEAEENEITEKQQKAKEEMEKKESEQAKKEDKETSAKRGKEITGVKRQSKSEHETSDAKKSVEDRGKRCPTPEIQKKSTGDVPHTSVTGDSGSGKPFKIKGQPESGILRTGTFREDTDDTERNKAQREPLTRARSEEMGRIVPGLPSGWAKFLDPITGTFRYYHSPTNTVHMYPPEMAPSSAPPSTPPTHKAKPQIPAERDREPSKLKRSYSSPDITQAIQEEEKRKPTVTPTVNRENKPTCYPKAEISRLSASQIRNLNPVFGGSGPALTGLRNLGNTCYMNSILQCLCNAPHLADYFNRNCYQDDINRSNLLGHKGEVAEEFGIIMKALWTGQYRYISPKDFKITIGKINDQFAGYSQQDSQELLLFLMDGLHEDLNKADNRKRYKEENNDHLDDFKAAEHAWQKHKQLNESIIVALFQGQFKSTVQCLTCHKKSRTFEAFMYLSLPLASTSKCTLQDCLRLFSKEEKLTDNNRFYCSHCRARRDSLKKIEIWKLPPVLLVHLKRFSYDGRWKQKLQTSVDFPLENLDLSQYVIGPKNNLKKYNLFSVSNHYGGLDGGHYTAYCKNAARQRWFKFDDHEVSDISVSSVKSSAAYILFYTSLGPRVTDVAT
T6 sequence (Q14790 217-479): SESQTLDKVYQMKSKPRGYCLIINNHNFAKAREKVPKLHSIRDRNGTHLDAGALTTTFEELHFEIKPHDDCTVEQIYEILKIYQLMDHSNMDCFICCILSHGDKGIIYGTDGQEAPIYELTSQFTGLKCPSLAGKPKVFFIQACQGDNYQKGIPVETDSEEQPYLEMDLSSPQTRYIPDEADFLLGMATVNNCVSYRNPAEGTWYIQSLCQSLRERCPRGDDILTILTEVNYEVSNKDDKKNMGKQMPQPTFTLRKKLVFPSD
T19 sequence (Q9UBX1 271-484): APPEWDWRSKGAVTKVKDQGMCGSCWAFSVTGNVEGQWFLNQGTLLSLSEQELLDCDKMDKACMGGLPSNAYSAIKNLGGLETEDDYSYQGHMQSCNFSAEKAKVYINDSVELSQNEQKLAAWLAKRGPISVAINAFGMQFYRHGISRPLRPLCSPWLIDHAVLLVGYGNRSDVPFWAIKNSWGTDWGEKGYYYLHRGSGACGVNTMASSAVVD

## COC[C@@H]1CCCN1S(=O)(=O)c1ccc2c(c1)C(=O)C(=O)N2 [Caspase 3/7 Inhibitor I]
[1]
  Percentage inhibition (%) Reference: 89%
[2]
  Percentage inhibition (%) Reference: 92%

## CC(C)C[C@H](NC(=O)[C@H]1O[C@@H]1C(=O)O)C(=O)NCCCCN=C(N)N [E-64]
[3]
  Percentage inhibition (%) Reference: 83%
[4]
  Percentage inhibition (%) Reference: 97%
[5]
  Percentage inhibition (%) Reference: 91%
[6]
  Percentage inhibition (%) Reference: 97%

## Caspase 8 Inhibitor I
[7]
  Percentage inhibition (%) Reference: 87%
[8]
  Percentage inhibition (%) Reference: 94%

## Ub-Aldehyde
[9]
  Percentage inhibition (%) Reference: 91%
[10]
  Percentage inhibition (%) Reference: 73%
[11]
  Percentage inhibition (%) Reference: 92%
[12]
  Percentage inhibition (%) Reference: 77%
[13]
  Percentage inhibition (%) Reference: 95%
[14]
  Percentage inhibition (%) Reference: 95%
[15]
  Percentage inhibition (%) Reference: 97%
[16]
  Percentage inhibition (%) Reference: 96%
[17]
  Percentage inhibition (%) Reference: 82%
[18]
  Percentage inhibition (%) Reference: 84%

## N#C[C@@H]1CC(F)(F)CN1C(=O)CNC(=O)c1ccnc2ccccc12 [SP-13786]
[19]
  Percentage inhibition (%) Reference: 100%

## Cystatin C
[20]
  Percentage inhibition (%) Reference: 74%

## N#Cc1ccc(NCCNCC(=O)N2N=CCC2C#N)nc1 (stereo not shown) [KR62436]
[21]
  Percentage inhibition (%) Reference: 83%
[22]
  Percentage inhibition (%) Reference: 96%
